Assays:
[1] = test system: choroidal neovascularisation; test: Laser-induced choroidal neovascularisation (CNV); assay type: in vivo, C57/B6 mice
Method: 6-8 week-old female C57/B6 mice were anesthetized with an intraperitoneal injection of a mixture of 50 mg/kg ketamine and 0.5 mg/kg medetomidine. The pupils were immediately dilated by topical (eyedrop) application with a dilator such as 5% phenylephrine hydrochloride and 1% tropicamide. Four photocoagulation lesions were delivered with a green Merilas 532α laser (450 mW, 130 ms) between the “large” retinal vessels in clear space with no vessels in a peripapillary distribution at a distance of 1-2 disc-diameters in each eye. Only clean laser lesions with a subretinal bubble at the time of treatment were included in the study. Immediately following laser photocoagulation the animals were given topical eye drops of candidate compounds twice daily at 2 μg/mL, 0.2 μg/mL or 0.066 μg/mL or eye drop formulation control as indicated (10 μL, eyes held for 30 seconds to prevent animal wiping drop away). Experiments were performed with an initial eye drop formulation containing 1% hydroxypropyl methyl cellulose, 0.2% tyloxapol, 3.4% dextrose, 0.006% benzalkonium chloride, and 0.025% ethylenediaminetetraacetic acid with 1% DMSO in PBS and data were confirmed in a second eye drop formulation containing 7% poly-oxyl-40-stearate and 4% dextrose in PBS.
After one week, mice were anesthetized with an intraperitoneal injection of a mixture of 50 mg/kg ketamine and 0.5 mg/kg medetomidine. […]

SRPK1 = target: T1, SRPK1 (Homo sapiens, UniProt Q96SB4); test: In vitro kinase assay (radioactive filter binding, 33P ATP); assay type: biochemical
T1 construct: purchased MRC Dundee Kinase Centre (external assay service)
T1 sequence (Q96SB4 whole entry): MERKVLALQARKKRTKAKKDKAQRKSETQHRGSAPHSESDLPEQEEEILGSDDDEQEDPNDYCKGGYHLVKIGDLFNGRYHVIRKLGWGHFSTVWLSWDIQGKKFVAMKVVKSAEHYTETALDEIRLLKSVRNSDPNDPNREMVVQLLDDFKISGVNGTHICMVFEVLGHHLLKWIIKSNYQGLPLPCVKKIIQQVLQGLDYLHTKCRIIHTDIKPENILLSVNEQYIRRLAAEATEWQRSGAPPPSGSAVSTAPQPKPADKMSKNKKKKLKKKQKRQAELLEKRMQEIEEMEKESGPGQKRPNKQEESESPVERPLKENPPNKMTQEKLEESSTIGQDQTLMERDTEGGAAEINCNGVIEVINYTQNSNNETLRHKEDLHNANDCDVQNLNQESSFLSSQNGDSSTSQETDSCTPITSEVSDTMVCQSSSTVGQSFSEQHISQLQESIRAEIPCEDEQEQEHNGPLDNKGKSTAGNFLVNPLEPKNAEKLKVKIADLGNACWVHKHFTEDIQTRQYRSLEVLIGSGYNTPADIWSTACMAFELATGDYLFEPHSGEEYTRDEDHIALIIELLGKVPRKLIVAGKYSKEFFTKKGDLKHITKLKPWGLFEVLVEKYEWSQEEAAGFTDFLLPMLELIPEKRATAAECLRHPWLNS
Method: Kinase assays were carried out by the MRC Dundee Kinase Centre using a radioactive filter binding assay using ^33P ATP (Hastie, et al 2006. Nat Protoc. 2006; 1(2):968-71; Bain, et al 2007. Biochem J. 2007 Dec. 15; 408(3):297-315).

[2] = Rabbit pharmacokinetic study (eye drop); assay type: in vivo; conditions: single 50 μL eye drop, 500 μg/mL, 1, 4, 12 or 24 hours
Method: Rabbits were treated with a single 50 μL eye drop of pazopanib at 80 μg/ml (maximum limit of solubility) and compound R at 500 μg/mL in the initial eye drop formulation containing 1% hydroxypropyl methyl cellulose, 0.2% tyloxapol, 3.4% dextrose, 0.006% benzalkonium chloride, and 0.025% ethylenediaminetetraacetic acid with 1% DMSO in PBS or with a single 50 μL eye drop of compound 1 at 500 μg/mL in the eye drop formulation containing 7% poly-oxyl-40-stearate and 4% dextrose in PBS. No difference between the eye drop formulations was confirmed in a separate study. Rabbits were killed at the indicated time points after the eye drop, blood and eyes taken, and the retina dissected from the choroid and sclera, incisions made, and laid out flat. Retina, RPE/choroid and sclera eye compartments were dissected into 7 different areas. All samples were weighed. Compound was extracted by reverse phase extraction from the retina and choroid/sclera samples and the plasma as above, and amount determined by mass spectrometry in different areas of the eye and in the blood. […]
To determine if the compounds could access the RPE of an animal with a large eye, a rabbit was exposed to 500 μg/mL of the compound as an eye drop and the concentrations in the retina, sclera, vitreous and other eye tissues (cornea); lens; RPE/choroid were measured. […]

pan-VEGF and VEGF-A165b = test: Non-human primate retinal VEGF immunoblotting; assay type: in vivo, Cynomolgus monkeys; conditions: monkey
Method: Retina sections sampled from half of the eye were homogenised in NP40 lysis buffer as described in Gammons et al., 2013. The extracts were then immunoblotted using either rabbit anti-panVEGF (Santa Cruz A20 sc-152; 1:500) or mouse anti-VEGFi65b (MAB3045; R&D; 1:500).
To determine whether compound 1 could penetrate into the retina of primates we dosed cynomologous monkeys with 0.5, 1.0 or 1.5 mg/mL compound 1 twice a day for 21 days. […] Aqueous taps and plasma samples were taken during the treatment and compound 1 measured in the fluid. […] To determine if these doses were sufficient to inhibit angiogenic VEGF-A isoform expression, retinal tissue was subjected to immunoblotting using pan-VEGF or VEGF-A165b antibodies.

[3] = Porcine scleral permeability (modified Ussing chamber); assay type: in vitro ADME; conditions: pig, pH 7.4, porcine excised eye tissue, 10 μg/mL compound on donor side
Method: Scleral permeability was measured using a modified Ussing chamber assembly in the initial eye drop formulation containing 1% hydroxypropyl methyl cellulose, 0.2% tyloxapol, 3.4% dextrose, 0.006% benzalkonium chloride, and 0.025% ethylenediaminetetraacetic acid with 1% DMSO in PBS (pH 7.4). Porcine excised eye tissues were mounted in the chambers such that the episcleral side faced the donor chamber and the retinal side faced the receiver chamber. The chambers were filled with equal volumes of eye drop formulation, with (donor side) or without (receiver side) 10 μg/mL compound. After 24 hours tissue was removed from the chamber and the receiver side (“vitreous”) sampled. Tissue was dissected into sclera, choroid/RPE, and retina and homogenised. A tracer (SPHINX7; WO 2015/159103) was added, and tissue extracted by acetonitrile extraction as described in Batson et al (2017). Compounds were then analysed by mass spectrometry as described in Batson et al (2017).
To determine whether compounds could get across the sclera of a larger animal, porcine sclera was clamped between two chambers and compounds were added to the sclera with eye drop formulation added to the bottom chamber and compounds added to the top chamber. After 24 hours, the fluid from the bottom chamber (vitreous) and the retinal tissue was isolated and compounds purified by methanol or acetonitrile extraction and HPLC.

[4] = 3 weeks bidaily dosing, FIG. 10b

Cn1ccc(CN2CCN(c3ccc(C(F)(F)F)cc3NC(=O)c3ccc(C4CCOCC4)o3)CC2)n1 [Compound 1, N-(2-(4-((1-methyl-1H-pyrazol-3-yl)methyl)piperazin-1-yl)-5-(trifluoromethyl)phenyl)-5-(tetrahydro-2H-pyran-4-yl)furan-2-carboxamide]
Anti-angiogenic activity on lesion size versus reference compounds ([1]; laser-induced mouse model of CNV, FIG. 7): same anti-angiogenic activity on lesion size as reference compounds | Inhibition of choroidal neovascularisation ([1]; mouse, eye drops twice daily at 0.066 μg/mL, FIG. 7b): significantly inhibited | IC50 (SRPK1): 4 nM | Retinal penetration after eye drop [2]: better sustained penetration (e.g. at 4 hrs) than chemically similar molecules such as Compound R | Total VEGF levels in retina (pan-VEGF and VEGF-A165b; [4]): total VEGF levels are decreased | VEGF-A165b levels in retina (pan-VEGF and VEGF-A165b; [4]): do not decrease and increase at 1 mg/ml | Ratio of angiogenic to anti-angiogenic VEGF-A in retina (pan-VEGF and VEGF-A165b; FIG. 10c): decreases | Papp at 24 h, 10 μg/mL [3]: 0.067 ×10⁻⁶ cm/s
